Each structure is given as a SMILES string. Structures can show the parent of a compound that is named as a salt.

For one assay, the system named is V2R. As to the kind of experiment: BRET based receptor internalization assay. Particulars: V2R-expressing cells stimulated with AVP. Type of assay: cell-based. As to the method:
BRET-based assays were performed to measure receptor internalization using two complementary bystander BRET-formats. First, the association of the receptor (β2V2R-RlucII or V2R-RlucII, BRET donor) with the early endosome (2×FYVE-mVenus, BRET acceptor) was directly measured following agonist stimulation as described previously (Smith, J. S. et al. C-X-C Motif Chemokine Receptor 3 Splice Variants Differentially Activate Beta-Arrestins to Regulate Downstream Signaling Pathways. Mol Pharmacol 92, 136-150, doi:10.1124/mol.117.108522 (2017)). Second, receptor internalization following agonist stimulation was determined by measuring BRET signal from labeled receptor (β2V2R-RlucII or V2R-RlucII, BRET donor) and plasma membrane component (myr-palm-mVenus, BRET acceptor). Cells were transfected with 2.5 μg V2R-RlucII and 10 μg 2×FYVE-mVenus or 2 μg of myr-palm-mVenus using FuGENE HD (Promega, Madison, Wis.) in an individual 10 cm dish. ˜24 hours post-transfection, cells were seeded in white 96-well clear-bottomed plates at a density of 75,000 cells per well. The following day cells were washed and the media was changed to Hanks' Balanced Salt Solution (HBSS) buffer supplemented with 10 mM HEPES for 1 hours at 37° C. Cells were pretreated with βarr modulating compounds (50 μM) or vehicle, then incubated for 30 min at 37° C. Cells were stimulated with increasing doses of agonist isoproterenol or arginine vasopressin (GenScript). Coelenterazine-h was added to the cells 5 min prior to BRET measurements to a final concentration of 5 μM. BRET measurements were performed using the Synergy2 (BioTek®) microplate reader with a filter set of 410/80 nm and 515/30 nm to detect the RlucII (donor) and mVenus (acceptor) light emissions, respectively. The BRET signal was determined by calculating the ratio of the light intensity emitted by the acceptor over the light intensity emitted by the donor. Net BRET was calculated using this ratio and subtracting the same ratio measured from cells expressing only the BRET donor.
(In general: BRET reads energy transfer from a luciferase to a nearby fluorophore.)

The target of assay [1] is T1, βarr2 (Rattus norvegicus, UniProt P29067). The assay is described as follows: Binding affinity (Kd) by ITC / thermal shift. Also on record: made in house. The note with it: Cmpd-30 by ITC; other three by combination of ITC and thermal shift; read-out: Kd (dissociation constant), βarr2. As to the method: A high-throughput differential scanning fluorimetry-based thermal shift screen was developed to identify potential βarr small-molecule modulators present in the collection of structurally diverse, drug-like small-molecule compound library described above. The screen was performed using the StepOnePlus™ Real-Time PCR System (Applied Biosystems, Foster City, Calif.). Melting temperature changes were monitored with the use of a reporter fluorescent probe, SYPRO Orange (Thermo Fisher Scientific). Proteins were buffered in a 20 mM HEPES pH 7.5, 100 mM NaCl solution. All reactions were set up in a 96-well plate at final volumes of 20 μl. Small-molecule test compounds were plated from DMSO stock solutions into 96 well plates (1 compound/well) at a final compound concentration of 100 μM. The final DMSO concentration per well was 1%. βarr1 or βarr2 final concentration was maintained at 5 μM per well. Vehicle (DMSO), negative, and positive controls were also included in each plate. Negative controls contained SYPRO Orange in buffer by itself (no βarr protein). Three known βarr binders were individually tested under described assay conditions: ‘V2Rpp’, a phosphorylated peptide corresponding to the C-terminus of the vasopressin-2 receptor (V2R); Fab30, an antigen-binding fragment that recognizes V2Rpp bound active βarr conformation; and inositol hexakisphosphate (IP6). […]. […] The temperature was raised with a step of 0.5° C. per 30 second from 25° C. to 99° C. and fluorescence readings were taken at each interval. Melting curves were directly exported from the instrument and were analyzed using Applied Biosystems® Protein Thermal Shift™ Software. Melting temperature (Tm) was calculated by plotting the first derivative of the fluorescence emission as a function of temperature [−dF/dT]. […]
(§1) ITC measurements were made using the MicroCal iTC200 system (MicroCal, Malvern, Pa.). […] Data were analyzed using MicroCal Origin software program to obtain association constant (Ka=1/Kd), stoichiometry (N), and thermodynamic parameters such as enthalpy (ΔH) and entropy (ΔS) of binding.
Target sequence in this assay (P29067 whole entry): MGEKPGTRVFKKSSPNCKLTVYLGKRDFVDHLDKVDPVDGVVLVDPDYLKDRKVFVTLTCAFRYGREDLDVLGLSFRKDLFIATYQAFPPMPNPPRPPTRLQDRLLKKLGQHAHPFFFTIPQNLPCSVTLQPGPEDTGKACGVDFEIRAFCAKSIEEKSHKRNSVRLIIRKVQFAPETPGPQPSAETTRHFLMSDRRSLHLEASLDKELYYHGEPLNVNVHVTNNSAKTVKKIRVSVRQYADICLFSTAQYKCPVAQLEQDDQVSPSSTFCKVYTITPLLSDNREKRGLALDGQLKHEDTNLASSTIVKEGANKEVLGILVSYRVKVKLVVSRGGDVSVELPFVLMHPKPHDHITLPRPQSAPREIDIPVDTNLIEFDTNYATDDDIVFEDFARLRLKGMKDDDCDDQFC
Background: In ITC the heat of successive injections is recorded.

For the next assay, the target named is T2, βarr1 (Rattus norvegicus, UniProt P29066).
T2 construct: made in house
T2 sequence (P29066 whole entry): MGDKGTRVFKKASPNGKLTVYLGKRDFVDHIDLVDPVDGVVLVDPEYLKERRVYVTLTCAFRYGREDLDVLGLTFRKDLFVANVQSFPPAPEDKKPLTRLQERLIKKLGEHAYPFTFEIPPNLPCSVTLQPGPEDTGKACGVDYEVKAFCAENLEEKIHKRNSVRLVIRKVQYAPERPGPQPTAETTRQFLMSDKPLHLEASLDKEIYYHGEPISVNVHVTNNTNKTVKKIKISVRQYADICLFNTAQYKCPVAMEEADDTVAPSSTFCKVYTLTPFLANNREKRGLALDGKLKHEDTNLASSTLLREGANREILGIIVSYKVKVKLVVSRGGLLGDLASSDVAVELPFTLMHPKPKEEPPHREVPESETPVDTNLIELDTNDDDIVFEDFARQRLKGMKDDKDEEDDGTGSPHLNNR
The assay is described as follows: Binding affinity (Kd) by ITC / thermal shift. The note with it: Cmpd-30 by ITC; other three by combination of ITC and thermal shift; read-out: Kd (dissociation constant), βarr1. As to the method: A high-throughput differential scanning fluorimetry-based thermal shift screen was developed to identify potential βarr small-molecule modulators present in the collection of structurally diverse, drug-like small-molecule compound library described above. The screen was performed using the StepOnePlus™ Real-Time PCR System (Applied Biosystems, Foster City, Calif.). Melting temperature changes were monitored with the use of a reporter fluorescent probe, SYPRO Orange (Thermo Fisher Scientific). Proteins were buffered in a 20 mM HEPES pH 7.5, 100 mM NaCl solution. All reactions were set up in a 96-well plate at final volumes of 20 μl. […] The temperature was raised with a step of 0.5° C. per 30 second from 25° C. to 99° C. and fluorescence readings were taken at each interval. Melting curves were directly exported from the instrument and were analyzed using Applied Biosystems® Protein Thermal Shift™ Software. Melting temperature (Tm) was calculated by plotting the first derivative of the fluorescence emission as a function of temperature [−dF/dT]. […]
as §1

In assay [2] the target is T1, βarr2. The assay is described as follows: Dynamic light scattering (DLS) of βarr2. Also on record: final βarr2 (truncated βarr2 at 394) concentration of ˜1 mg/mL; made in house. Particulars: control βarr2 7.1 nm; Cmpd-30 60 μM. The procedure: DLS was performed on a Zetasizer Nano ZS instrument (Malvern Instruments, UK) at an excitation He—Ne laser source of 633 nm and a detector at a scattering angle of 173°. The measurements were obtained at 25° C. and defined time intervals. A low volume (100 μl) disposable sample cuvette was used (BRAND, Wertheim, Germany). The protein solutions used for all particle size measurements were at a final βarr2 (truncated βarr2 at 394) concentration of ˜1 mg/mL (20 μM) in a buffer consisting of […] (pH 7.4) and 150 mM NaCl in presence of Cmpd-30 (60 μM), IP6 (300 uM) or vehicle (DMSO). Size distributions of scattering particles of different βarr2 sample were obtained after data analysis performed on intensity and volume size distribution curves and the molecular mass and Z-average size calculated using Malvern DTS software.
Target sequence in this assay (P29067 1-394): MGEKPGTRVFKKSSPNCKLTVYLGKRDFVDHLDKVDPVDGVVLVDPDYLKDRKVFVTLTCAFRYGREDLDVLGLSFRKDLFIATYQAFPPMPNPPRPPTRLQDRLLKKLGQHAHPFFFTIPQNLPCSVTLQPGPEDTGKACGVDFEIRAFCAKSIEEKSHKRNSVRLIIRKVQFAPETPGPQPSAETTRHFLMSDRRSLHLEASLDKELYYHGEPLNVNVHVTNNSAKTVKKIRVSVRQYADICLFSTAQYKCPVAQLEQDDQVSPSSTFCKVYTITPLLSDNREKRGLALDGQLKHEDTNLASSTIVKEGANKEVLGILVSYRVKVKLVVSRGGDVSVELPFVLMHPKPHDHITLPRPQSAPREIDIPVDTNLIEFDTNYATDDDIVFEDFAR

As usually defined, the Kd is the free concentration of one partner at which half of the binding sites on the other are occupied at equilibrium, for simple one-to-one binding. `C=C1C(=O)OC2CC3(C)OC3CC/C(C)=C\C(OC(C)=O)C12` (stereo not drawn) [Cmpd-64, [(8Z)-3,8-dimethyl-12-methylidene-13-oxo-4,14-dioxatricyclo[9.3.0.03,5]tetradec-8-en-10-yl] acetate]: the “internalization of the receptor and association with early endosomes” value (“internalization” below) in the assay with V2R is “inhibit”. Further, the Kd at βarr2 [1] was found to be 104 nM.
Take `C=C1C(=O)C23[C@H](O)C1CC[C@H]2[C@]12COC3(O)[C@@H](O)[C@@H]1C(C)(C)CC[C@@H]2O` [Cmpd-5, (1R,2S,10S,11R,15S,18R)-9,10,15,18-tetrahydroxy-12,12-dimethyl-6-methylidene-17-oxapentacyclo[7.6.2.15,8.01,11.02,8]octadecan-7-one]: the Kd on βarr1 was 233 nM; at βarr2 [1], 261 nM. Besides, the “internalization” value in the assay with V2R was “inhibit”.
Consider `CN(C)c1n/c(=N/Cc2ccco2)ss1` [Cmpd-30, 5-(furan-2-ylmethylimino)-N,N-dimethyl-1,2,4-dithiazol-3-amine;hydrobromide], for which the values for the Kd at βarr1 and at βarr2 [1] were 9.3 nM and 2 nM, respectively. Besides, the “particle (hydrodynamic) diameter of βarr2” value on βarr2 [2] stood at 8.2 nm. In addition, the “internalization” value in the assay with V2R is “inhibit”.
